Consider 22 molecules from publication PMC9822066 (Molecules, 2022).

One experiment concerns the target T1, hMAO B (Homo sapiens, UniProt P27338).
T1 sequence (P27338 1-520): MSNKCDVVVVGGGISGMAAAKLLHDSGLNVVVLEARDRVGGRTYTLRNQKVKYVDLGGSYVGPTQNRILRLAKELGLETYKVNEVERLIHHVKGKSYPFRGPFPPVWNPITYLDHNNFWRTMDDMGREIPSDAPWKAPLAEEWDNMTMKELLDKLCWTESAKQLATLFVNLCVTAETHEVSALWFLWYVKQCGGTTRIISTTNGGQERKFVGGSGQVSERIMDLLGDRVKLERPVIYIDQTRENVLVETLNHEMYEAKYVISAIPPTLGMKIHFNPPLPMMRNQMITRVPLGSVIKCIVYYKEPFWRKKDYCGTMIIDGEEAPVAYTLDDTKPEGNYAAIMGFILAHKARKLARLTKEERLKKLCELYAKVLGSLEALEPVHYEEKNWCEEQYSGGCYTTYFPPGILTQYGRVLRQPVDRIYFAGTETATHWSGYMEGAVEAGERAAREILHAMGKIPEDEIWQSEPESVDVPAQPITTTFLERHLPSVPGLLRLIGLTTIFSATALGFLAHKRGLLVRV
The experiment in a line: Fluorometric MAO assay, hMAO B inhibition. Particulars: mean ± SEM of two independent experiments, read-out: hMAO B %Inh. at 1 µM. The format is biochemical.

Experiment [1] has as its target T2, electric eel AChE (eeAChE) (Electrophorus electricus, UniProt O42275).
T2 construct: purchased Sigma–Aldrich (Steinheim, Germany)
Kind of experiment: biochemical. The following applies: for inhibition at 10 µM: read-out: eeAChE % Inh. at 10 µM; for IC50: mean ± SEM, triplicate independent experiments, read-out: eeAChE IC50.

The target in the next experiment is T3, human H3R (Homo sapiens, UniProt Q9Y5N1).
T3 construct: expressed in transfected cells; host or cells: HEK293
Kind of experiment: [3H]Nα-methylhistamine radioligand binding assay in HEK293 cells stably expressing hH3R. The protocol:
Final compounds were tested for their H3R affinity in a radioligand binding assay using [^3H]N^α-methylhistamine as radioligand in HEK293 cells stably expressing hH3R [25]. […] Affinity to hH3R stably expressed in HEK293 cells was evaluated in a radioligand binding assay as described previously. […] The radioactivity was counted in a MicroBeta Trilux counter (PerkinElmer). Data were fitted to a one-site curve-fitting equation with Prism 6 (GraphPad Software, San Diego, CA, USA) and Ki values were calculated from IC50 values (from at least three experiments performed in duplicates) according to the Cheng−Prusoff equation [52].

The target of experiment [2] is BuChE from equine serum (eqBuChE) (Equus caballus, UniProt P81908). Kind of experiment: biochemical. The following applies: for IC50: mean ± SEM, triplicate independent experiments. The format is biochemical.
[3] abbreviates: mean value within the 95% CI, three repetitions, read-out: hH3R Ki.

Structures can show the parent of a compound that is named as a salt. Where two headings read alike, the source gives them in different places.

T2 sequence (O42275 24-633): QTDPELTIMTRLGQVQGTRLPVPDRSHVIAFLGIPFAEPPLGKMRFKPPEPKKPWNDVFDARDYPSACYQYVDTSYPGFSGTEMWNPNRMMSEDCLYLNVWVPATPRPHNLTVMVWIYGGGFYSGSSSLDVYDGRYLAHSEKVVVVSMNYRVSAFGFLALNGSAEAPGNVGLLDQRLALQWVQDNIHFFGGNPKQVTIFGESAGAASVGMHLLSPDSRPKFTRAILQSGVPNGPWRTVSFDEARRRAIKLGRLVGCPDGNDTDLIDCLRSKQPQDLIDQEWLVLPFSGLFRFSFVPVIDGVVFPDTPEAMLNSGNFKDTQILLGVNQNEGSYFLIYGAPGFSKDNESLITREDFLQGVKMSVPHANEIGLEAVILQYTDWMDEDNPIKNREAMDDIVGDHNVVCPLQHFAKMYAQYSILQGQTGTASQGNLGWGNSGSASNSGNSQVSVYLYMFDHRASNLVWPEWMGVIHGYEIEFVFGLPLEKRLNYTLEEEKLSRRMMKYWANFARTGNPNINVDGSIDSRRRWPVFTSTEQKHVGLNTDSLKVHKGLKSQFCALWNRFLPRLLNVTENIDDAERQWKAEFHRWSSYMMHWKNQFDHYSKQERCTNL
Sequence of BuChE from equine serum (eqBuChE) (P81908 whole entry): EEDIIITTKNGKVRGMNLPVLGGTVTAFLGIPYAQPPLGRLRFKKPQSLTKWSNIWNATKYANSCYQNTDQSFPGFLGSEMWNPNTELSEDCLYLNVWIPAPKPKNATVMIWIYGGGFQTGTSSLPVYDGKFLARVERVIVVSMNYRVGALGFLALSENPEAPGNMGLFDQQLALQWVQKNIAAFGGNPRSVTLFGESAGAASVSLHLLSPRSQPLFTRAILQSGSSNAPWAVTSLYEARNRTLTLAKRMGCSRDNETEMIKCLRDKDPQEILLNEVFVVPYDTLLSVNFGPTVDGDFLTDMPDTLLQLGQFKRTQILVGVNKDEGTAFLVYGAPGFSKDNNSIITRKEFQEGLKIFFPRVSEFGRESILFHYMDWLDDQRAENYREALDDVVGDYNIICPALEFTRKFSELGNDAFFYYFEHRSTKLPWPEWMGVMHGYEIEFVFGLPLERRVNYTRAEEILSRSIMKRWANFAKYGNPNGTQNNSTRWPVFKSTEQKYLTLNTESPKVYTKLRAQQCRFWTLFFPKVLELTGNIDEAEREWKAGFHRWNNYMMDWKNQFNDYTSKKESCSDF
T3 sequence (Q9Y5N1 whole entry): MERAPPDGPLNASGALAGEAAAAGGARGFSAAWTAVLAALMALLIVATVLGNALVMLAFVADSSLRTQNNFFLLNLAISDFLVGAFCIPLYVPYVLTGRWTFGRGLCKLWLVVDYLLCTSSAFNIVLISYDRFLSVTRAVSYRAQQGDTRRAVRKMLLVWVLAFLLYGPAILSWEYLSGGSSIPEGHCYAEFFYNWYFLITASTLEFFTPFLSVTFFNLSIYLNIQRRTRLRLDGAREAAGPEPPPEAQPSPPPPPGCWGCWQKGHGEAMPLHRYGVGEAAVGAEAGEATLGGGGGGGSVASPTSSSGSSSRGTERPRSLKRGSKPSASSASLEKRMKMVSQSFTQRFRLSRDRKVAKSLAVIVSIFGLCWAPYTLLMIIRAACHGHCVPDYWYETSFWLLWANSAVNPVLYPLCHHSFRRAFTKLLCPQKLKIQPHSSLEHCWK

For orientation: Ki means the dissociation constant of the complex between target and ligand, obtained from inhibition or displacement. For orientation: IC50 means the concentration at which inhibition is half-maximal. In the case of `O=C(O)C(=O)O.O=C(c1ccccc1)c1ccccc1OCCCCCN1CCCCC1` [Compound 2, Phenyl (2-((5-(piperidin-1-yl)pentyl)oxy)phenyl)methanone hydrogen oxalate], the inhibition at 1 µM at hMAO B is 23%. Besides, the inhibition at 10 µM in experiment [1] came to 22%. On human H3R, this molecule showed a Ki of 371 nM. In experiment [2], the “selectivity eqBuChE versus eeAChE” value is reported as “selective eqBuChE inhibitors” and it took 1610 ± 60 nM to reach half-maximal inhibition (IC50).
For the molecule `O=C(c1ccccc1)c1cccc(OCCCCCN2CCCCC2)c1` [Compound 3, Phenyl (3-((5-(piperidin-1-yl)pentyl)oxy)phenyl)methanone hydrogen oxalate], the inhibition at 1 µM at hMAO B was determined as 15%. Also, the half-inhibitory concentration (IC50) in experiment [1] is 7750 ± 329 nM; in experiment [2], 4010 ± 67 nM. At human H3R, this molecule yielded a Ki of 210 nM.
In the case of `O=C(c1ccccc1)c1ccc(OCCCCCN2CCCCC2)cc1` [Compound 4, Phenyl (4-((5-(piperidin-1-yl)pentyl)oxy)phenyl)methanone hydrogen oxalate], the inhibition at 1 µM at hMAO B was determined as 44%. Further, the inhibition at 10 µM in experiment [1] is 41%. Moreover, the midpoint of inhibition in experiment [2], the IC50, lay at 2480 ± 40 nM.
With `O=C(c1ccc(Cl)cc1)c1ccc(OCCCCCN2CCCCC2)cc1` [Compound 5, (4-Chlorophenyl) (4-((5-(piperidin-1-yl)pentyl)oxy)phenyl)methanone hydrogen oxalate], at hMAO B, the inhibition at 1 µM stood at 18%. Besides, the IC50 in experiment [1] is 2870 ± 71 nM; in experiment [2], 1680 ± 17 nM. Also, the Ki on human H3R amounted to 20 nM.
For `O=C(O)C(=O)O.O=C(c1ccccc1)c1ccccc1OCCCCCCN1CCCCC1` [Compound 7, (2-((6-(Piperidin-1-yl)hexyl)oxy)phenyl)(phenyl)methanone hydrogen oxalate], the inhibition at 1 µM on hMAO B was determined as 12%. In addition, in experiment [1], the inhibition at 10 µM was 3%. Further, the affinity on human H3R corresponds to a Ki of 161 nM. Moreover, in experiment [2], the “selectivity eqBuChE versus eeAChE” value was “selective eqBuChE inhibitors” and the IC50 was 2110 ± 32 nM.
Consider `O=C(c1ccc(Cl)cc1)c1ccc(OCCCCCCN2CCCCC2)cc1` [Compound 10, (4-Chlorophenyl) (4-((6-(piperidin-1-yl)hexyl)oxy)phenyl)methanone hydrogen oxalate], for which the inhibition at 1 µM on hMAO B stood at 39%. Further, the IC50 stood at 2670 ± 94 nM in experiment [1] and 2460 ± 61 nM in experiment [2]. At human H3R, this molecule registered a Ki of 25 nM.
The matching figures for `O=C(c1ccc(F)cc1)c1ccc(OCCCCCCN2CCCCC2)cc1` [Compound 11, (4-Fluorophenyl) (4-((6-(piperidin-1-yl)hexyl)oxy)phenyl)methanone hydrogen oxalate]: 28%, 3098 ± 9 nM, 419 ± 2 nM and 26 nM.
For `CC1CCCN(CCCCCOc2ccccc2C(=O)c2ccccc2)C1.O=C(O)C(=O)O` (centres unmarked) [Compound 12, (2-((5-(3-Methylpiperidin-1-yl)pentyl)oxy)phenyl)(phenyl)methanone hydrogen oxalate], at hMAO B, the inhibition at 1 µM came to 9%. Further, the inhibition at 10 µM in experiment [1] turned out to be 16%. Affinity at human H3R was put at a Ki of 208 nM. In experiment [2], the “selectivity eqBuChE versus eeAChE” value is recorded as “selective eqBuChE inhibitors” and the IC50 was found to be 1610 ± 61 nM.
Turning to `CC1CCCN(CCCCCOc2cccc(C(=O)c3ccccc3)c2)C1` (centres unmarked) [Compound 13, (3-((5-(3-Methylpiperidin-1-yl)pentyl)oxy)phenyl)(phenyl)methanone hydrogen oxalate], the inhibition at 1 µM on hMAO B was determined as 8%. For the same molecule, the IC50 in experiment [1] is 3790 ± 104 nM; in experiment [2], 3420 ± 78 nM. The molecule further had a Ki on human H3R of 78 nM.
For the molecule `CC1CCCN(CCCCCOc2ccc(C(=O)c3ccc(Cl)cc3)cc2)C1` (centres unmarked) [Compound 15, (4-Chlorophenyl) (4-((5-(3-methylpiperin-1-yl)pentyl)oxy)phenyl)methanone hydrogen oxalate], the inhibition at 1 µM on hMAO B came out at 19%. Besides, the half-maximal inhibitory concentration (IC50) stood at 2650 ± 87 nM in experiment [1] and 2560 ± 50 nM in experiment [2]. Further, the Ki at human H3R (setting [3]) is 37 nM.
For `CC1CCCN(CCCCCOc2ccc(C(=O)c3ccc(F)cc3)cc2)C1` (centres unmarked) [Compound 16, (4-Fluorophenyl) (4-((5-(3-methylpiperidin-1-yl)pentyl)oxy)phenyl)methanone hydrogen oxalate], at hMAO B, the inhibition at 1 µM was found to be 20%. The half-maximal inhibitory concentration (IC50) turned out to be 2023 ± 6 nM in experiment [1] and 311 ± 6 nM in experiment [2]. The same molecule registered an inhibitory constant (Ki) on human H3R of 12 nM.
Turning to `CC1CCCN(CCCCCCOc2ccccc2C(=O)c2ccccc2)C1.O=C(O)C(=O)O` (centres unmarked) [Compound 17, (2-((6-(3-Methylpiperidin-1-yl)hexyl)oxy)phenyl)(phenyl)methanone hydrogen oxalate], the inhibition at 1 µM at hMAO B came to 8%. The inhibition at 10 µM in experiment [1] amounted to 20%. At human H3R, this molecule gave an inhibition constant Ki of 152 nM. Further, in experiment [2], the “selectivity eqBuChE versus eeAChE” value was “selective eqBuChE inhibitors” and the IC50 was found to be 2500 ± 28 nM.
Regarding `CC1CCCN(CCCCCCOc2ccc(C(=O)c3ccc(Cl)cc3)cc2)C1` (centres unmarked) [Compound 20, (4-Chlorophenyl) (4-((6-(3-methylpiperin-1-yl)hexyl)oxy)phenyl)methanone hydrogen oxalate], on hMAO B, the inhibition at 1 µM turned out to be 17%. The half-maximal inhibitory concentration (IC50) in experiment [1] worked out at 2740 ± 98 nM; in experiment [2] it was 2520 ± 31 nM. The Ki on human H3R (setting [3]) was determined as 44 nM.
As to `CC1CCCN(CCCCCCOc2ccc(C(=O)c3ccc(F)cc3)cc2)C1` (centres unmarked) [Compound 21, (4-Fluorophenyl) (4-(6-(3-methylpiperin-1-yl)hexyloxy)phenyl)methanone hydrogen oxalate], the inhibition at 1 µM at hMAO B came out at 23%. The IC50 in experiment [1] worked out at 2000 ± 46 nM; in experiment [2], 2560 ± 40 nM. At human H3R (setting [3]), the inhibition constant (Ki) turned out to be 75 nM.
For `CC1CCN(CCCCCOc2cccc(C(=O)c3ccccc3)c2)CC1` [Compound 22, (3-((5-(4-Methylpiperidin-1-yl)pentyl)oxy)phenyl)(phenyl)methanone hydrogen oxalate], at hMAO B, the inhibition at 1 µM stood at 32%. Besides, the half-inhibitory concentration (IC50) is 4450 ± 94 nM in experiment [1] and 1700 ± 46 nM in experiment [2]. For the same molecule, the affinity at human H3R, expressed as Ki, was 298 nM.
The matching figures for `CC1CCN(CCCCCOc2ccc(C(=O)c3ccccc3)cc2)CC1` [Compound 23, (4-((5-(4-Methylpiperidin-1-yl)pentyl)oxy)phenyl)(phenyl)methanone hydrogen oxalate]: 27%, 2600 ± 72 nM, 1570 ± 35 nM and 67 nM.
For `CC1CCN(CCCCCCOc2cccc(C(=O)c3ccccc3)c2)CC1` [Compound 24, (3-((6-(4-Methylpiperidin-1-yl)hexyl)oxy)phenyl)(phenyl)methanone hydrogen oxalate], on hMAO B, the inhibition at 1 µM came out at 20%. Further, the concentration for half-maximal inhibition (IC50) in experiment [1] was determined as 2460 ± 70 nM; in experiment [2], 1060 ± 43 nM. In addition, the Ki at human H3R was 106 nM.
Consider `CC1CCN(CCCCCCOc2ccc(C(=O)c3ccccc3)cc2)CC1` [Compound 25, (4-((6-(4-Methylpiperidin-1-yl)hexyl)oxy)phenyl)(phenyl)methanone hydrogen oxalate], for which the inhibition at 1 µM on hMAO B turned out to be 22%. Further, the IC50 turned out to be 2690 ± 47 nM in experiment [1] and 1560 ± 50 nM in experiment [2]. In addition, at human H3R, affinity was put at a Ki of 53 nM.
Regarding `O=C(O)C(=O)O.O=C(c1ccccc1)c1ccccc1OCCCCCN1CCCCCC1` [Compound 26, (2-((5-(Azepan-1-yl)pentyl)oxy)phenyl)(phenyl)methanone hydrogen oxalate], the inhibition at 1 µM on hMAO B came out at 3%. Besides, the inhibition at 10 µM in experiment [1] was found to be 24%. For the same molecule, the affinity at human H3R corresponds to a Ki of 302 nM. In experiment [2], the “selectivity eqBuChE versus eeAChE” value is listed as “selective eqBuChE inhibitors” and the IC50 came out at 384 ± 8 nM.
In the case of `O=C(c1ccccc1)c1cccc(OCCCCCN2CCCCCC2)c1` [Compound 27, (3-((5-(Azepan-1-yl)pentyl)oxy)phenyl)(phenyl)methanone hydrogen oxalate], the inhibition at 1 µM at hMAO B worked out at 14%. Moreover, the IC50 in experiment [1] is 3660 ± 92 nM; in experiment [2], 901 ± 10 nM. In addition, the affinity on human H3R corresponds to a Ki of 307 nM.
The matching figures for `O=C(c1ccc(Cl)cc1)c1ccc(OCCCCCN2CCCCCC2)cc1` [Compound 29, (4-Chlorophenyl)(4-(5-(azepan-1-yl)pentyloxy)phenyl)methanone hydrogen oxalate]: 26%, 2240 ± 35 nM, 676 ± 3 nM and 66 nM.
Turning to `Clc1ccc(CCCOCCCN2CCCCC2)cc1` [pitolisant, reference compound], the inhibition at 10 µM in experiment [1] worked out at 3%.
